Data set [1] has as its system MRC5 cells. Nature of the data set: cells. The data set is classed as cell-based, human. The note with it: Homo sapiens, MRC5, read-out: EC50 MRC5 (SD, n). As for the experimental part:
(§1) The 96-well HTS assays against blood stream form T. brucei[38] and MRC5 cells were carried out as reported previously.[39] The manual assays performed on the AT1 double knock out T. brucei and wild type T. brucei were conducted as described by Jones et al.[39]

Data set [2] relates to blood stream form T. brucei. Nature of the data set: 96-well HTS assay against blood stream form T. brucei. It is filed as cell-based, Trypanosoma brucei. The note with it: for EC50: Trypanosoma brucei. Here is the method: as §1
The next data set can be described thus: in vitro. The data set is classed as cell-based, human. Particulars: human. As for the experimental part: as §1
In the next data set the test system is wild type T. brucei. Kind of data set: 96-well manual assay on wild type T. brucei. The note with it: Trypanosoma brucei, read-out: T. brucei EC50 (SD). The data set is classed as cell-based. Here is the method: In order to determine if analogues 35, 38, 44 and 46 are substrates for the P2 transporter they were assayed against a line of T. brucei lacking the gene which codes for the P2 transporter (Table 2).[33] If the analogues are transported they would be expected to show greater potency against wild type T. brucei than against the P2 knock out line. Compounds 8 and 19,[25] which contain the triazole and indolyl quinol pharmacophore respectively, but lack a P2 motif, served as negative controls.
as §1

For the next data set, the system named is T. brucei AT1 KO. Kind of data set: 96-well manual assay on AT1 double knock out T. brucei (P2 transporter knock out). The data set is classed as cell-based, Trypanosoma brucei. The note with it: for EC50: Trypanosoma brucei, read-out: T. brucei AT1 KO EC50 (SD); for Cell line selectivity: EC50 (AT1 KO)/EC50 (WT): manual assay. As for the experimental part: In order to determine if analogues 35, 38, 44 and 46 are substrates for the P2 transporter they were assayed against a line of T. brucei lacking the gene which codes for the P2 transporter (Table 2).[33] […] Compounds 8 and 19,[25] which contain the triazole and indolyl quinol pharmacophore respectively, but lack a P2 motif, served as negative controls.
as §1

In data set [3] the test system is blood stream form T. brucei. Further details: method as in PMID 21212280. The note with it: cited from earlier work; for EC50: Table 1, data taken from Konig et al.
Data set [4] has as its system MRC5 cells. Also noted: method as in PMID 21212280. Particulars: Table 1; data taken from Konig et al.; cited from earlier work.
[5] abbreviates: Table 1, arithmetic mean of independent determinations, read-out: EC50 T. brucei (SD, n).
The mark [6] stands for this setting: Table 2, 96-well manual assay, wild type, weighted mean of three independent experiments.
[7] abbreviates: Table 2, 96-well HTS assay, blood stream form T. b. brucei, read-out: T. brucei EC50 (SD, n).

Each structure is given as a SMILES string. Read-outs that look alike come from different tables or passages of the source. Some results are limits rather than exact numbers.

Here are results for 29 compounds from article PMC3281193, “Quinol derivatives as potential trypanocidal agents” (Bioorganic & Medicinal Chemistry, 2012).

Broadly, the EC50 is the concentration needed to bring the measured effect to its halfway point. As to `O=C1C=CC(O)(c2cn(CCC(=O)Nc3ccccc3)nn2)C=C1` [Compound 12, 3-(4-(1-Hydroxy-4-oxocyclohexa-2,5-dien-1-yl)-1H-1,2,3-triazol-1-yl)-N-phenylpropanamide], the half-maximal effective concentration (EC50) in the data set with MRC5 cells [1] is 18000 nM; in data set [2] (setting [5]) it was 2700 nM.
As for `COC(=O)CCc1ccc(S(=O)(=O)n2c(C3(O)C=CC(=O)C=C3)cc3ccccc32)cc1` [Compound 19, Methyl 3-(4-((2-(1-hydroxy-4-oxocyclohexa-2,5-dien-1-yl)-1H-indol-1-yl)sulfonyl)phenyl) propanoate], the 50% effective concentration (EC50) in the data set “in vitro” amounted to 0.28 µM; in the data set on MRC5 cells [1], 280 nM; in the data set with wild type T. brucei (setting [6]) it was 60 nM; in data set [2] (setting [5]) it was 160 nM; in data set [2] (setting [7]) it was 160 nM; in the data set on T. brucei AT1 KO, 80 nM. The “Cell line selectivity: EC50 (AT1 KO)/EC50 (WT)” value (“Cell line selectivity: EC50” for short) in the data set with T. brucei AT1 KO was 1.3.
Regarding `N=C(N)c1ccc(-n2cc(C3(O)C=CC(=O)C=C3)nn2)cc1` [Compound 35, 4-(4-(1-Hydroxy-4-oxocyclohexa-2,5-dienyl)-1H-1,2,3-triazol-1-yl)benzimidamide], the concentration giving a half-maximal response (EC50) in “in vitro” was more than 50 µM; in the data set on wild type T. brucei (setting [6]) it was 5000 nM; in data set [2] (setting [7]), 11000 nM; in the data set on T. brucei AT1 KO, 6000 nM. In the data set on T. brucei AT1 KO, the “Cell line selectivity: EC50” value amounted to 1.2.
For the compound `N=C(N)c1ccc(OCCCCCOc2ccc(C(=N)N)cc2)cc1` [pentamidine, reference compound], in data set [2] (reference drugs assayed under identical conditions, read-out: EC50 against T. brucei), the EC50 turned out to be 8 nM.
For the compound `Nc1nc(N)nc(NCCCOC(=O)CCc2ccc(S(=O)(=O)n3c(C4(O)C=CC(=O)C=C4)cc4ccccc43)cc2)n1` [Compound 44, 3-((4,6-Diamino-1,3,5-triazin-2-yl)amino)propyl 3-(4-((2-(1-hydroxy-4-oxocyclohexa-2,5-dien-1-yl)-1H-indol-1-yl)sulfonyl)phenyl)propanoate], the EC50 turned out to be 0.95 µM in the data set “in vitro”, 250 nM in the data set on wild type T. brucei (setting [6]), 350 nM in data set [2] (setting [7]) and 260 nM with T. brucei AT1 KO. Further, the “Cell line selectivity: EC50” value in the data set on T. brucei AT1 KO came to 1.0.
Regarding `Nc1nc(N)nc(NCCCNC(=O)CCc2ccc(S(=O)(=O)n3c(C4(O)C=CC(=O)C=C4)cc4ccccc43)cc2)n1` [Compound 46, N-(3-((4,6-Diamino-1,3,5-triazin-2-yl)amino)propyl)-3-(4-((2-(1-hydroxy-4-oxocyclohexa-2,5-dien-1-yl)-1H-indol-1-yl)sulfonyl)phenyl)propanamide], the 50% effective concentration (EC50) in the data set “in vitro” came to 18 µM; in the data set on wild type T. brucei (setting [6]), 1700 nM; in data set [2] (setting [7]), 3200 nM; with T. brucei AT1 KO, 1800 nM. Further, the “Cell line selectivity: EC50” value in the data set on T. brucei AT1 KO was 1.1.
For the compound `O=C1C=CC(O)(c2nc3ccccc3s2)C(Cl)=C1` (centres unmarked) [Compound 6], the EC50 with MRC5 cells [1] was 55 nM; in data set [2] (setting [5]), 46 nM. In data set [2], the “activity against T. brucei in words” value is “low nanomolar range”.
As for `CC(=O)NCCc1ccc(S(=O)(=O)n2c(C3(O)C=CC(=O)C=C3)cc3ccccc32)cc1` [Compound 18], the EC50 came out at 36 nM with MRC5 cells [1] and 12 nM in data set [2] (setting [5]). The “activity against T. brucei in words” value in data set [2] was “low nanomolar range”.
Turning to `CN1CCN(C(=O)CCc2ccc(S(=O)(=O)n3c(C4(O)C=CC(=O)C=C4)cc4ccccc43)cc2)CC1` [Compound 22], the 50% effective concentration (EC50) came out at 52 nM with MRC5 cells [1] and 18 nM in data set [2] (setting [5]).
On to `Nc1nc(N)nc(-n2cc(C3(O)C=CC(=O)C=C3)nn2)n1` [Compound 38, 4-(1-(4,6-Diamino-1,3,5-triazin-2-yl)-1H-1,2,3-triazol-4-yl)-4-hydroxycyclohexa-2,5-dienone], for which the EC50 is more than 50 µM in the data set “in vitro”, 3800 nM with wild type T. brucei (setting [6]), 6200 nM in data set [2] (setting [7]) and 3800 nM in the data set on T. brucei AT1 KO. Besides, the “Cell line selectivity: EC50” value in the data set on T. brucei AT1 KO was determined as 1.0.
For `O=C1C=CC(O)(c2cc3ccccc3n2S(=O)(=O)c2ccc(CCC(=O)N3CCOCC3)cc2)C=C1` [Compound 21], the half-maximal effective concentration (EC50) in the data set on MRC5 cells [1] was 67 nM; in data set [2] (setting [5]) it was 36 nM.
For the compound `COc1ccc(Cn2cc(C3(O)C=CC(=O)C=C3)nn2)cc1` [Compound 9], the results for the concentration giving a half-maximal response (EC50) (in the data set with MRC5 cells [1]; in data set [2] (setting [5])) were 450 nM and 160 nM, respectively.
As to `O=C1C=CC(O)(C#Cc2ccc(CC(=O)Nc3ccccc3)cc2)C=C1` [Compound 3, 2-(4-((1-Hydroxy-4-oxocyclohexa-2,5-dien-1-yl)ethynyl)phenyl)-N-phenylacetamide], the half-maximal effective concentration (EC50) in the data set on MRC5 cells [1] was found to be 670 nM; in data set [2] (setting [5]), 2200 nM.
As for `N=C(N)c1ccc(/N=N/Nc2ccc(C(=N)N)cc2)cc1` [Berenil, reference compound], the EC50 was 31 nM in the data set with wild type T. brucei (setting [6]) and 330 nM in the data set on T. brucei AT1 KO. Further, in the data set with T. brucei AT1 KO, the “Cell line selectivity: EC50” value came to 11.
With `C#CC1(O)C=CC(=O)C=C1` [Compound 1, 4-Ethynyl-4-hydroxycyclohexa-2,5-dienone], the half-maximal effective concentration (EC50) with MRC5 cells [1] is 2100 nM; in data set [2] (setting [5]), 2000 nM.
Take `Cc1ccc(S(=O)(=O)n2c(C3(O)C=CC(=O)C=C3)cc3ccncc32)cc1` [Compound 16]: the EC50 with MRC5 cells [1] amounted to 44 nM; in data set [2] (setting [5]) it was 26 nM. In data set [2], the “activity against T. brucei in words” value is reported as “low nanomolar range”.
On to `O=C1C=CC(O)(c2cc3ccccc3n2S(=O)(=O)c2ccc(CCC(=O)O)cc2)C=C1` [Compound 42, 3-(4-((2-(1-Hydroxy-4-oxocyclohexa-2,5-dien-1-yl)-1H-indol-1-yl)sulfonyl)phenyl)propanoic acid], for which the EC50 came to 3.3 µM in “in vitro” and 740 nM in data set [2] (setting [7]).
Take `O=C1C=CC(O)(c2cc3cnccc3n2S(=O)(=O)c2ccccc2)C=C1` [Compound 15]: the values for the EC50 (in the data set on MRC5 cells [1]; in data set [2] (setting [5])) were 41 nM and 22 nM, respectively. Moreover, the “activity against T. brucei in words” value in data set [2] is listed as “low nanomolar range”.
With `CC(=O)OC[C@H]1O[C@@H](n2cc(C3(O)C=CC(=O)C=C3)nn2)[C@H](OC(C)=O)[C@@H](OC(C)=O)[C@H]1OC(C)=O` [Compound 11], the EC50 is more than 50000 nM with MRC5 cells [1] and 10000 nM in data set [2] (setting [5]).
Take `O=C1C=CC(O)(c2cc3ccccc3n2S(=O)(=O)c2ccc(CCCO)cc2)C=C1` [Compound 20]: the results for the EC50 (in the data set on MRC5 cells [1]; in data set [2] (setting [5])) were 51 nM and 24 nM, respectively.
As to `CS(=O)(=O)c1ccc(S(=O)(=O)n2c(C3(O)C=CC(=O)C=C3)cc3ccccc32)cc1` [Compound 25], the EC50 worked out at 39 nM with MRC5 cells [1] and 24 nM in data set [2] (setting [5]).
The like results for `O=C1C=CC(O)(c2cc3ccccc3n2S(=O)(=O)c2ccc(CCCN3CCOCC3)cc2)C=C1` [Compound 23] were, in that order, 79 nM and 26 nM.
As for `CCOC(=O)Nc1ccc(S(=O)(=O)n2c(C3(O)C=CC(=O)C=C3)cc3ccccc32)cc1` [Compound 17], the EC50 was 86 nM in the data set with MRC5 cells [1] and 50 nM in data set [2] (setting [5]).
As for `O=C1C=CC(O)(c2cc3ccc(F)cc3n2S(=O)(=O)c2ccccc2)C=C1` [Compound 13], in data set [3], the EC50 was 100 nM.
Turning to `CN1CCN(CCCc2ccc(S(=O)(=O)n3c(C4(O)C=CC(=O)C=C4)cc4ccccc43)cc2)CC1` [Compound 24], the values for the EC50 (with MRC5 cells [1]; in data set [2] (setting [5])) were 50 nM and 16 nM, respectively.
Consider `Nc1nc(N)nc(Nc2ccc([As]3SCC(CO)S3)cc2)n1` (centres unmarked) [melarsoprol, reference compound], for which the EC50 in data set [2] (read-out: EC50 against T. brucei) was 33 nM.
As to `Oc1ccc(-c2nc3ccccc3s2)cc1` [Compound 7], the EC50 in the data set on MRC5 cells [4] is more than 50 µM; in data set [3], more than 50000 nM. Further, the “activity against T. brucei in words” value in data set [3] was “inactive”.
For the compound `COc1ccc(-n2cc(C3(O)C=CC(=O)C=C3)nn2)cc1` [Compound 8], the concentration giving a half-maximal response (EC50) in the data set with wild type T. brucei turned out to be 95 nM. In addition, in the data set on T. brucei AT1 KO, the EC50 turned out to be 74 nM and the “Cell line selectivity: EC50” value is 0.78.
As to `O=C1C=CC(O)(c2cn(-c3ccc4ncsc4c3)nn2)C=C1` [Compound 10], the figures for the EC50 (in the data set on MRC5 cells [1]; in data set [2] (setting [5])) were 69 nM and 27 nM, respectively. For the same compound, the “activity against T. brucei in words” value in data set [2] is listed as “low nanomolar range”.
